Results published in US20140107109A1, “AMINO-DIHYDROTHIAZINE AND AMINO-DIOXIDO DIHYDROTHIAZINE COMPOUNDS AS BETA-SECRETASE ANTAGONISTS AND METHODS OF USE” (Amgen Inc., priority 2012, published 2014).
Where two headings read alike, the source gives them in different places.

Legend:
[1] = molecular target: Beta Secretase enzyme (BACE1) (Homo sapiens, UniProt P56817); test: In vitro enzymatic BACE FRET assay; type: biochemical; conditions: read-out: BACE1 FRET assay IC50
Method: In Vitro Enzymatic BACE FRET (Fluorescence Resonance Energy Transfer) Assay (Enzyme Assay Data in the Example Tables I and II)
The assay buffer used in this screen is 0.05 M acetate, pH 4.2, 10% DMSO final, 100 uM genapol (which is a nonionic detergent, below its Critical Micelle Concentration). […] This assay is effectively started by the addition of FRET substrate (50 nM) and the combination is incubated for one hour. The FRET assay is terminated with by addition of Tris buffer, which raises the pH to neutrality, and the fluorescence is determined. The FRET substrate is a peptide with commercially available fluorophore and quencher, on opposite sides of the BACE cleavage site. Proteolytic cleavage of the FRET substrate releases quenching of fluorescence (excitation […] and […]).

[2] = tested on: Aβ40 in conditioned medium of cells stably expressing Amyloid Precursor Protein (APP); test: In vitro BACE cell-based assay (HEK cell assay), Aβ40 sandwich ELISA; conditions: Homo sapiens, HEK293
Method: In Vitro BACE Cell-Based Assay
The cell-based assay measures inhibition or reduction of Aβ40 in conditioned medium of test compound treated cells expressing amyloid precursor protein.
Cells stably expressing Amyloid Precursor Protein (APP) were plated at a density of 40K cells/well in 96 well plates (Costar). The cells were cultivated for 24 hours at 37C. and 5% CO2 in DMEM supplemented with 10% FBS. The test compounds were then added to cells in 10-point dose response concentrations with the starting concentration being either 100 μM or 10 μM. The compounds were diluted from stock solutions in DMSO and the final DMSO concentration of the test compounds on cells was 0.1%. After 24 h of incubation with the test compounds the supernatant conditioned media was collected and the Aβ 40 levels were determined using a sandwich ELISA. The IC50 of the compound was calculated from the percent of control or percent inhibition of Aβ 40 as a function of the concentration of the test compound.
The sandwich ELISA to detect Aβ 40 was performed in 96 well microtiter plates, which were pre-treated with goat anti-rabbit IgG (Pierce). The capture and detecting antibody pair that were used to detect Aβ 40 from cell supernatants were affinity purified pAb40 (Biosource) and biotinylated 6E10 (Signet Labs Inc.), respectively. The optimal concentration for the pAb40 antibody was 3 μg/ml in Superblock/TBS (Pierce) that was supplemented with 0.05% Tween 20 (Sigma). Optimal concentration for the detection antibody 6E10-biotinylated was 0.5 μg/ml in Superblock/TBS (Pierce) that had been supplemented with 2% normal goat serum and 2% normal mouse serum.
Cellular supernatants were incubated with the capture antibody for 3 h at 4° C., followed by 3 wash steps in TBS-tween (0.05%). The detecting antibody incubation was for 2 h at 4° C., again followed by the wash steps as described previously. The final readout of the ELISA is Time-Resolved Fluorescence (counts per minute) using Delfia reagents Streptavidin-Europium and Enhancement solutions (Perkin Elmer) and the Victor 2 multilabel counter (Perkin Elmer).

Cathepsin D (Cat D) = molecular target: T1, Cathepsin D (Cat D) (Homo sapiens, UniProt P07339); test: In vitro enzymatic Cathepsin D (Cat D) FRET assay; type: biochemical; conditions: read-out: CatD IC50
T1 construct: Recombinant Cat D was expressed in CHO cells; made in house; host or cells: CHO cells
T1 sequence (P07339 65-412, species assumed): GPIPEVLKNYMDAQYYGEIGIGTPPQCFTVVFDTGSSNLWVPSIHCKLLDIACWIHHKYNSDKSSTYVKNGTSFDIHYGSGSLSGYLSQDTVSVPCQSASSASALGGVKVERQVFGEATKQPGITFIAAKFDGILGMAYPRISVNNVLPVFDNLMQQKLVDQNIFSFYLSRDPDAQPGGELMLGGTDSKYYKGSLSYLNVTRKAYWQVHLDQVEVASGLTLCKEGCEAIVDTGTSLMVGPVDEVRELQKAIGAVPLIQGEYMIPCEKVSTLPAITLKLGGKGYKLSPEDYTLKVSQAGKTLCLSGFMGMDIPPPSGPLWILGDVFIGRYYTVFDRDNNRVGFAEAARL
Method: In Vitro Enzymatic Cathepsin D (Cat D) FRET (Fluorescence Resonance Energy Transfer) Assay Recombinant Cat D was expressed in CHO cells. […] The Cat D enzyme (9 nM) is pre-incubated for one hour with inhibitors, typically in about 1 uL of DMSO according to a serial dilution, is added thereto. […] The FRET assay is terminated with by addition of Tris buffer, which raises the pH to neutrality, and the fluorescence is determined. The FRET substrate is a peptide with commercially available fluorophore and quencher, on opposite sides of the BACE cleavage site. The Cat D substrate peptide sequence is based on sequence #1 of Table 1 from Gulnik et al. […] Alternatively, a Cat D assay may also be run according to the procedure described in the article, Characterization of new fluorgenic substrates for the rapid and sensitive assay of cathepsin E and cathepsin D, J. Biochem., 125:1137, 1999. In addition, the cathepsin D and cathepsin E assays are described in PCT publication WO2011069934. This WIPO publication describes BACE inhibitor compounds having an amide linker connecting two aromatic groups with extremely poor cathepsin D and/or cathepsin E inhibitory activity (see Table 2). Where available, the in-vitro Cat D FRET assay data for each of the Examples, conducted by the first procedure, is provided.

Sequence of Beta Secretase enzyme (BACE1) (P56817 46-501): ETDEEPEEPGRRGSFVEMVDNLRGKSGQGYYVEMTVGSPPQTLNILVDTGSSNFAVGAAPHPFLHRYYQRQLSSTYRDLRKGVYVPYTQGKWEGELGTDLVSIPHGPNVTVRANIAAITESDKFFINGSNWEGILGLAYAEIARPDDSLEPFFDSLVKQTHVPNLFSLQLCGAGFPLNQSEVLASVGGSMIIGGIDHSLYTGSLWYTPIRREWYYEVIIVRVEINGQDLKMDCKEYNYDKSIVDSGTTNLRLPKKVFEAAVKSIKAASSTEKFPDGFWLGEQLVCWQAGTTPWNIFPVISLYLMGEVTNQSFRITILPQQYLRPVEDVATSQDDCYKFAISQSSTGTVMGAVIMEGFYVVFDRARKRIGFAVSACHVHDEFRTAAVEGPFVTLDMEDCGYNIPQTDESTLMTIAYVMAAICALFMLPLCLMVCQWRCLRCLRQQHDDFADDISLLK

| SMILES | IC50 ([1]; average IC50, enzyme assay) | IC50 ([2]; average IC50, cell assay) | IC50 (Cathepsin D (Cat D)) | IC50 [1] | IC50 [2] | IC50 ([2]; average IC50, HEK cell assay) | IC50 ([2]; Aβ40, 24 h incubation) |
| --- | --- | --- | --- | --- | --- | --- | --- |
| COc1cnc(C(=O)Nc2ccc(F)c([C@]3(C(F)F)CS(=O)(=O)C(C)(C)C(N)=N3)c2)cn1 [Example 36, (S)—N-(3-(5-amino-3-(difluoromethyl)-6,6-dimethyl-1,1-dioxido-3,6-dihydro-2H-1,4-thiazin-3-yl)-4-fluorophenyl)-5-methoxypyrazine-2-carboxamide] |  |  | > 400 µM | 0.0202 µM |  |  | 0.765 µM |
| CC1(C)C(N)=N[C@](C)(c2cc(Nc3nccc4cc(OCC#N)cnc34)ccc2F)CS1(=O)=O [Example 420, ((8-((3-((3R)-5-amino-3,6,6-trimethyl-1,1-dioxido-3,6-dihydro-2H-1,4-thiazin-3-yl)-4-fluorophenyl)amino)-1,7-naphthyridin-3-yl)oxy)acetonitrile] | 0.00485 µM | 0.0054 µM | 1260 µM |  |  |  |  |
| CCc1cccc(Oc2ccc(F)c([C@]3(C)CS(=O)(=O)C(C)(C)C(N)=N3)c2)c1 [Example 99, (R)-5-amino-3-(5-(3-ethylphenoxy)-2-fluorophenyl)-3,6,6-trimethyl-3,6-dihydro-2H-1,4-thiazine 1,1-dioxide] |  |  | 86.8 µM | 1.43 µM |  |  | 6.68 µM |
| Cc1cc(Cl)cnc1C(=O)Nc1ccc(F)c([C@]2(C)CS(=O)(=O)C3(CC(F)(F)C3)C(N)=N2)c1 [Example 124, (R)—N-(3-(9-amino-2,2-difluoro-7-methyl-5,5-dioxido-5-thia-8-azaspiro[3.5]non-8-en-7-yl)-4-fluorophenyl)-5-chloro-3-methylpicolinamide] |  |  | 96.3 µM | < 0.002 µM | 0.0246 µM |  |  |
| C[C@@]1(c2cc(N)cnc2F)CS(=O)(=O)C2(CCC2)C(N)=N1 [Example 415, (7R)-7-(5-amino-2-fluoro-3-pyridinyl)-7-methyl-5-thia-8-azaspiro[3.5]non-8-en-9-amine 5,5-dioxide] |  |  | 104 µM | 14.5 µM | > 15.6 µM |  |  |
| COc1cnc(C(=O)Nc2ccc(F)c([C@]3(C)CS(=O)(=O)[C@@](C)(F)C(N)=N3)c2)cn1 [Example 30, N-(3-((3R,6R)-5-amino-6-fluoro-3,6-dimethyl-1,1-dioxido-3,6-dihydro-2H-1,4-thiazin-3-yl)-4-fluorophenyl)-5-methoxy-2-pyrazinecarboxamide] |  |  | > 400 µM | 0.0031 µM |  |  | 0.0801 µM |
| CC1(C)C(N)=N[C@](C)(c2cc(Oc3nccc(C#N)c3Cl)ccc2F)CS1(=O)=O [Example 307, 2-(3-((3R)-5-amino-3,6,6-trimethyl-1,1-dioxido-3,6-dihydro-2H-1,4-thiazin-3-yl)-4-fluorophenoxy)-3-chloro-4-pyridinecarbonitrile] | 0.168 µM |  | 298 µM |  |  | 0.258 µM |  |
| CC1(C)C(N)=N[C@](C)(c2cc(Oc3ccc(F)c(C(F)(F)F)n3)ccc2F)CS1(=O)=O [Example 284, (5R)-5-(2-fluoro-5-((5-fluoro-6-(trifluoromethyl)-2-pyridinyl)oxy)phenyl)-2,2,5-trimethyl-5,6-dihydro-2H-1,4-thiazin-3-amine 1,1-dioxide] | 0.769 µM | 1.64 µM | 79.1 µM |  |  |  |  |

Now from value to compound, other results behind:

| IC50 ([1]; average IC50, enzyme assay) | IC50 ([2]; average IC50, cell assay) | IC50 (Cathepsin D (Cat D)) | IC50 [1] | IC50 [2] | IC50 ([2]; average IC50, HEK cell assay) | SMILES | IC50 ([2]; Aβ40, 24 h incubation) |
| --- | --- | --- | --- | --- | --- | --- | --- |
| 0.00031 µM | 0.0845 µM | 143 µM |  |  |  | CC1(C)C(N)=N[C@](CF)(c2cc(Nc3ncc(F)c4cc(Cl)cnc34)ccc2F)CS1(=O)=O [Example 233, N-(3-((3S)-5-amino-3-(fluoromethyl)-6,6-dimethyl-1,1-dioxido-3,6-dihydro-2H-1,4-thiazin-3-yl)-4-fluorophenyl)-3-chloro-5-fluoro-1,7-naphthyridin-8-amine] |  |
| 0.039 µM | 0.0521 µM | 395 µM |  |  |  | CC1(C)C(N)=N[C@](C)(c2cc(Oc3cc(C#N)ccn3)ccc2F)CS1(=O)=O [Example 280, 2-(3-((3R)-5-amino-3,6,6-trimethyl-1,1-dioxido-3,6-dihydro-2H-1,4-thiazin-3-yl)-4-fluorophenoxy)-4-pyridinecarbonitrile] |  |
| 0.0011 µM |  | 71 µM |  |  | 0.0018 µM | Cc1cc(Cl)cnc1C(=O)Nc1cnc(F)c([C@]2(C)CS(=O)(=O)C(C)(C)C(N)=N2)c1 [Example 347, N-(5-((3R)-5-amino-3,6,6-trimethyl-1,1-dioxido-3,6-dihydro-2H-1,4-thiazin-3-yl)-6-fluoro-3-pyridinyl)-5-chloro-3-methyl-2-pyridinecarboxamide] |  |
|  |  | 182 µM | 0.00087 µM | 0.0027 µM |  | Cc1cc(Cl)cnc1C(=O)Nc1ccc(F)c([C@@]2(C)N=C(N)C3(CC3)S(=O)(=O)[C@@H]2F)c1 [Example 204, N-(3-((5S,6R)-8-amino-5-fluoro-6-methyl-4,4-dioxido-4-thia-7-azaspiro[2.5]oct-7-en-6-yl)-4-fluorophenyl)-5-chloro-3-methylpicolinamide] |  |
| 1.21 µM | 1.9 µM | 35.9 µM |  |  |  | COc1ccc(CSc2ccc(F)c([C@]3(C)CS(=O)(=O)C(C)(C)C(N)=N3)c2)cc1 [Example 252, (5R)-5-(2-fluoro-5-((4-methoxybenzyl)sulfanyl)phenyl)-2,2,5-trimethyl-5,6-dihydro-2H-1,4-thiazin-3-amine 1,1-dioxide] |  |
| 0.298 µM | 0.131 µM | 567 µM |  |  |  | COc1ncc(NC(=O)c2ccccn2)cc1[C@]1(C)CS(=O)(=O)C(C)(C)C(N)=N1 [Example 424, N-(5-((3R)-5-amino-3,6,6-trimethyl-1,1-dioxido-3,6-dihydro-2H-1,4-thiazin-3-yl)-6-methoxy-3-pyridinyl)-2-pyridinecarboxamide] |  |
|  |  | > 400 µM | 0.0137 µM |  |  | COc1cnc2c(Nc3ccc(F)c([C@]4(C)CS(=O)(=O)[C@@](C)(F)C(N)=N4)c3)nccc2c1 [Example 74, (3R,6R)-5-Amino-6-fluoro-3-(2-fluorophenyl-5-((3-methoxy-1,7-naphthyridin-8-yl)amino)phenyl)-3,6-dimethyl-3,6-dihydro-2H-1,4-thiazine 1,1-dioxide] | 0.102 µM |
|  |  | 233 µM | 0.0019 µM | 0.0146 µM |  | CC1(C)C(N)=N[C@](C)(c2cc(NC(=O)c3ccc(C#N)cn3)cnc2F)CS1(=O)=O [Example 403, N-(5-((3R)-5-amino-3,6,6-trimethyl-1,1-dioxido-3,6-dihydro-2H-1,4-thiazin-3-yl)-6-fluoro-3-pyridinyl)-5-cyano-2-pyridinecarboxamide] |  |
|  |  | 268 µM | 0.00026 µM | 0.0014 µM |  | CC1(C)C(N)=N[C@](CF)(c2cc(NC(=O)c3ccc(OCC#CCF)cn3)ccc2F)CS1(=O)=O [Example 389, N-(3-((3S)-5-amino-3-(fluoromethyl)-6,6-dimethyl-1,1-dioxido-3,6-dihydro-2H-1,4-thiazin-3-yl)-4-fluorophenyl)-5-((4-fluoro-2-butyn-1-yl)oxy)-2-pyridinecarboxamide] |  |
| 0.318 µM | 0.305 µM | 920 µM |  |  |  | CC1(C)C(N)=N[C@](C)(c2cc(Oc3cc(N)nc(N)n3)ccc2F)CS1(=O)=O [Example 268, 6-(3-((3R)-5-amino-3,6,6-trimethyl-1,1-dioxido-3,6-dihydro-2H-1,4-thiazin-3-yl)-4-fluorophenoxy)-2,4-pyrimidinediamine] |  |
